Test results as given in US20170119020A1, “METHOD OF FEEDING AN ANIMAL” (CARGILL, INCORPORATED, priority 2014, published 2017).

Columns and labels:
sows (PIC) = assay: Sow performance (Example 10); assay type: in vivo, pig; conditions: for Culled sows, n: reproductive failure: 13 sows; for Wean-to-remate interval / Weaning-to-estrus interval: Subsequent performance; for Farrowing rate (%), subsequent performance: next cycle
Method: The trial was conducted at a farm in Poland. In general the housing and management conditions on the chosen workplace were considered representative for the geographical region. The breeding, gestation, and farrowing facilities of the farm were fully enclosed buildings with rooms that were ventilated and heated to maintain a minimum comfort zone temperature for the sows. Testing was performed on sows (primiparous and multiparous) of the same type of crossing (PIC). The trial comprised 52 sows in a system of continuous farrowing. Each group was consist of 13 animals. The trial ran from day 1 of pregnancy to remating in the next cycle. There were two dietary compositions: LP 0-90 d, LK-90 d of gestation-weaning. Feed fed throughout the study was manufactured in the feed mill of the farm. The feed produced was complete feeds according to the standard feeding management procedures on the participating farm. Feed consistency was mash. […] Each group was fed with complete diets for pregnant sows (0-90 d) and for lactation sows (90 d of gestation-weaning) with different inclusion of vitamin E and tested product (see TABLE 43A) and lactation diets (see TABLE 43B) The performance following criteria were monitored during the trial: (i) Sows response criteria (actual parity, farrowing rate, culled sows—number and reasons, wean-to-mating interval, farrowing rate in the next cycle); (ii) litter response criteria (number of piglets, total, alive, stillborn, mummies; weight of piglets and litters; survival). The following biochemical (blood) criteria were monitored during the trial for the sows (mating, farrowing and weaning), piglets 21st day: (i) glutathione peroxidase (GPx) activity; (ii) superoxide dismutase (SOD) activity; (iii) total antioxidant status (TAS); (iv) vitamin E content; (v) vitamin A content.

[1] = tested on: livers of Ross 308 chicks; assay: Chick liver SOD and GSSG analysis, OXISELECT kits (Example 5); assay type: in vivo, chicken; conditions: breeder diet
Method: Group egg weights were recorded at E0. At E7 and E18, all eggs were candled and empty eggs or eggs containing dead embryos were removed (early dead E0-E7, mid dead E8-E18). At E18 eggs were transferred to the hatching baskets after candling. At hatch (E21) the number of dead chickens, late dead embryos (E19-E21) and pipped eggs were recorded. The number of hatched chickens was recorded per replicate, as well as average chick weight. Hatchability was calculated as percentage of total eggs set. Sex was determined by feather sexing, female chickens were euthanized by CO2 and disposed according to local regulations. Per experimental unit, five male chickens were selected for the grow-out period and allocated to broiler grower pens. Only chickens with an average body weight, completely dry, showing active movement and with a good navel score were selected. After this selection one male chicken per experimental unit was selected for dissection. Sample chickens were individually weighed and killed by cervical dislocation to measure remaining yolk-sac weights, yolk-free body mass (“YFBM”), liver weight, chick length, and shank length of both shanks. The livers were immediately placed on dry ice and after dissection stored at −20° C. for further analysis (“SOD and GSSG”). Relative asymmetry was calculated according to the following formula: […]
Furthermore, no treatment effects were found on several chick quality parameters (YFBM, chick length, and relative asymmetry). OXISELECT Superoxide Dismutase Activity Assay (“SOD”) and OXISELECT Total Glutathione (GSSG/GSH) Assay (“GSSG”) kits, available commercially from Cell Biolabs, Inc., San Diego, Calif., USA, were used to analyze chick livers.

[2] = tested on: eggs and hatched chickens of Cobb broiler breeders; assay: Hatchability, fertility and chick quality of eggs of Example 1 (Example 2); assay type: in vivo, chicken
Method: The eggs were stored based on breeder pen and storage day. Eggs were allocated to twelve trays and nine blocks, with each block representing a storage day. At E17, all eggs were candled and at E18, eggs were transferred from the incubator […] to […] baskets. […] (64.4° F.) and a relative humidity of 75%. At the start of the incubation period, the eggs were weighed and allocated into blocks, each block representing a storage day. Each block consisted of twelve experimental units, with each experimental unit indicating a group of ten eggs. Only intact eggs were included; cracked, dirty, or eggs with deformed shells were excluded from the experiment. The eggs were placed in a NatureForm NMC 2340 Incubator with automatic control of temperature and relative humidity. From E0 until E18, the eggs were placed in setter trolleys, which consist of two shelves with a capacity for thirteen trays each. Each tray has three flats of thirty eggs. During this period, the incubator start temperature was set to 37.5° C. and relative humidity to 54%. […] After the setter period (E0-E18), eggs were transferred to baskets in the […] based on the blocking structure in the setter. The eggs were placed into subdivisions of a hatching crate, per replicate, and following tray order per block. Each […] trolley has twelve baskets with a capacity for 180 eggs each. […] Egg weights were recorded per experimental unit at E0. At hatch (E21) the number of dead chickens, dead embryos and […] (internal and external) were recorded. Remaining non-hatched eggs were opened to determine age and cause of death. The number of hatched chickens was recorded per replicate, as well as average chick weight. Sex was determined by cloaca sexing, performed by a professional chicken-sexer. Hatchability was calculated as percentage of total and of fertile eggs (eggs which contained living embryos after E17). […] Only chickens with an average body weight, completely dry, showing active movement and with a good navel score were selected. […] Sample chickens were individually weighed and killed by cervical dislocation to measure remaining yolk-sac weights, yolk-free body mass (“YFBM”), chick length, and shank length of both shanks. Relative asymmetry was calculated according to the following formula: RA=(|L-R|/[(L+R)/2])×100.

[3] = Group 2: vitamin E 50/75 mg/kg diet
[4] = Group 3: vitamin E 100/150 mg/kg diet
[5] = eggs of 28-29 week breeders of Example 1

In the case of `Cc1c(C)c2c(c(C)c1O)CCC(C)(CCCC(C)CCCC(C)CCCC(C)C)O2` (racemic) [Vitamin E, DL-α-tocopherol], the “Farrowing rate (%)” value (sows (PIC); [3]) is reported as 84.62%, the “Culled sows, n: reproductive failure” value (sows (PIC); [3]) is reported as 2 and the “Farrowing rate (%)” value (sows (PIC); [4]) is reported as 84.62%. For the same molecule, the “Culled sows, n: reproductive failure” value (sows (PIC); [4]) was 2, the Wean-to-remate interval (sows (PIC); [3]) was 9.89 days and the Weaning-to-estrus interval (sows (PIC); [3]) was 5.09 days. The Wean-to-remate interval (sows (PIC); [4]) was 7.70 days, the Weaning-to-estrus interval (sows (PIC); [4]) was 5.64 days and the “Farrowing rate (%), subsequent performance” value (sows (PIC); [3]) was 80.00%. The “Farrowing rate (%), subsequent performance” value (sows (PIC); [4]) was 90.91%, the GSSG ([1]; vitamin E equivalence 80 ppm) was 4.27 µM and the SOD units ([1]; vitamin E equivalence 80 ppm) was 0.776 units. The GSSG ([1]; vitamin E equivalence 160 ppm) was 4.48 µM, the SOD units ([1]; vitamin E equivalence 160 ppm) was 0.777 units and the “Chick Weight” value ([2]; at hatch) was 42.4 g. The “Chick Weight” value ([2]; dissected chickens) was 41.3 g, the “Chick length” value ([2]; dissected chickens) was 17.9 cm and the “Relative Assymetrie (shank)” value ([2]; dissected chickens) was 1.59. For the same molecule, the “YFBM (yolk free body mass)” value ([2]; dissected chickens) was 36.2 g, the “Yolk weight” value ([2]; dissected chickens) was 4.92 g and the “Relative Chick Weight^1” value ([2]; dissected chickens, expressed as percentage of average egg weight) was 70.7%. For the same molecule, the “Relative Chick Weight^2” value ([2]; dissected chickens, expressed as percentage of chick weight) was 11.8%, the Fertility [2, 5] was 92.6% and the Hatchability of fertile [2, 5] was 95.6%. For the same molecule, the Hatchability of total [2, 5] was 88.6% and the “Relative chick weight” value ([2]; expressed as percentage of average egg weight) was 72.5%.
